Experimental data: patent publication US20210198284A1, “GOLD COMPOSITIONS AND METHODS OF USE THEREOF” (THE UNIVERSITY OF MASSACHUSETTS, priority 2018, published 2021)

Columns and labels:
Format in all cases: cell-based
A549 cells = experiment: Cytotoxicity assay (resazurin); details: 20 h, mean±S.E.M. from two independent experiments
Summary of the method: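 A549 cells (5×10^3/well) were exposed to two-fold serial dilutions from 128 μg/mL (compounds 9-17 from 1,280 μg/mL) for 20 h at 37 °C. Resazurin was then added for 3 h and fluorescence read at ex 560/em 590 nm. IC50 came from curve fitting of inhibition vs log concentration; triplicates, repeated twice.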

C. neoformans KN99 = experiment: Antifungal MIC
Gram-negative strains = experiment: In vitro antimicrobial activities, Gram-negative strains taken together; details: Gram-negative strains tested
Protocol: Antibacterial assay. The minimum inhibitory concentrations (MICs) and the minimum bactericidal concentrations (MBCs) were determined by the broth microdilution method as described in the CLSI (The Clinical & Laboratory Standards Institute) guidelines (Performance standards for antimicrobial susceptibility testing: Clinical and Laboratory Standards Institute (CLSI), Twenty-Fifth informational supplement. Document M100-S25: […]; Vol. 35). All bacterial strains were cultured in cation-adjusted Muller Hinton broth (CAMHB) up to log-phase and then diluted to give a concentration of 7.5×10^5 CFU/mL. The gold complexes were dissolved in DMSO or water as stock solutions, which were then serially diluted two-fold in a 96-well plate. Aliquots (100 μL) of the dilutions were mixed with equal volumes of the bacterium suspension in a 96 well plate (in triplicates). The plates were incubated at 37° C. for 18 h without shaking. Negative and positive controls were included in the same well plate with wells having the culture medium only and bacteria solution only, respectively. The sample concentration that gave inhibition values above 90% were determined as MICs as calculated from absorbance values at 600 nm (OD600) obtained using a Tecan SPARK IOM plate reader. […] The sample concentration that gave no colony formed on agar plates were determined as MBCs. […]

[1] = system: C. neoformans ATCC 208821; experiment: Antifungal MIC; details: for MIC: C. neoformans ATCC 208821
S. aureus = experiment: Antimicrobial screening of auranofin analogs
Source text: (§1) Auranofin analogs were synthesized by varying the structure of the thio-sugar ligand and the phosphine ligands. These analogs were screened for antimicrobial activity against 5 key ESKAPE pathogens and E. coli. (Table 3). The “ESKAPE” pathogens consist of six pathogens with growing multidrug resistant virulence: Enterococcus faecium (gram-positive), Staphylococcus aureus (gram-positive), Klebsiella pneumoniae (gram-negative), Acinetobacter (gram-negative), Pseudomonas aeruginosa (gram-negative) and Eterobacter (gram-negative). According to the data from the Centers for Disease Control and Prevention (CDC), two-thirds of all clinical infections are caused by these six ESKAPE bacteria.

K. pneumoniae = experiment: Antimicrobial screening of auranofin analogs
Source text: as §1

E. cloacae = experiment: Antimicrobial screening of auranofin analogs
Source text: as §1

E. faecalis = experiment: Antimicrobial screening of auranofin analogs
Source text: as §1

MRSA = experiment: Antimicrobial screening of auranofin analogs
Source text: as §1

P. aeruginosa = experiment: Antimicrobial screening of auranofin analogs
Source text: as §1

C. albicans ATCC 90028 = experiment: Antifungal MIC

Substance	IC50 against A549 cells (A549 cells) [µg/mL]	MIC (C. neoformans KN99) [µg/mL]	activity in words (Gram-negative strains)	antifungal activity in words ([1]; C. neoforman, strain not named)	MIC [1] [µg/mL]	bactericidal activity at the lowest tested concentration (S. aureus) [µg/mL]	activity in words (K. pneumoniae)	activity in words (E. cloacae)	bactericidal activity at the lowest tested concentration (E. faecalis) [µg/mL]	bactericidal activity at the lowest tested concentration (MRSA) [µg/mL]	activity in words (P. aeruginosa)	MIC (C. albicans ATCC 90028) [µg/mL]
(2-Aminobenzenethiolato)(triethylphosphine) gold(I) [Compound 19]	7.5 ± 0.1	2										
(2,3,4,6-Tetra-O-acetyl-1-thio-β-D-glucopyranosato) (triethylphosphine) gold(I) [Compound 1, reference compound]	7.7 ± 1.3	16	no activity	moderate antifungal activity	8	≤ 0.5	lacked significant activity	lacked significant activity	≤ 0.5	≤ 0.25	lacked significant activity	>32
(2-Mercaptoethanolato)(trimethylphosphine) gold (I) [Compound 27]	12.3 ± 3.1											
[2,3,4,6-Tetra-O-acetyl-α-D-glucopyranosyl (1→4)-2,3,6-tri-O-acetyl-1-thio-β-D-glucopyranosato](triethylphosphine) gold(I) [Compound 5]	15.2 ± 0.3				>32							>32
